Experimental findings from US8778872B2 (priority 2010, dated 2014) are described below.

Data set [1] addresses T1, GLP-1 receptor (Homo sapiens, UniProt P43220).
T1 construct: expressed in transfected cells; host or cells: HEK293
The experiment in a line: Luciferase-based reporter gene assay for cAMP detection, HEK293 cells co-transfected with GLP-1 receptor (prodrug samples pre-incubated in PBS or plasma). The data set is classed as cell-based. A general note: A reporter such as luciferase makes a cellular process visible.
Protocol: To explore the possible formation of DKP and simultaneous regeneration of the parent drug, 40 k PEG-Aib^−1-P^0,C^24GLP(7-36) was incubated in PBS buffer at 37° C. for approximately 10 days.

The nature of data set [2]: Dipeptide cleavage half time in PBS on model hexapeptide (HPLC / LC-MS). As to conditions: for Relative peak area(%), HPLC peak a / Relative peak area(%), HPLC peak b: PBS; for Relative peak area(%), HPLC peak a: peak a MW 702; for Relative peak area(%), HPLC peak b: peak b MW 902; for half-life: buffer.
Protocol: (§1) The flow rate was 1 mL/min. Solvent A contained 0.1% TFA in distilled water, and solvent B contained 0.1% TFA in 90% CH3CN. A linear gradient was employed (0% to 30% B in 10 minutes). The data were collected and analyzed using Peak Simple Chromatography software.
(§2) The initial rates of cleavage were used to measure the rate constant for the dissociation of the respective prodrugs. […] The first order dissociation rate constants of the prodrugs were determined by plotting the logarithm of the concentration of the prodrug at various time intervals. The slope of this plot gives the rate constant ‘k’.
The conditions of data set [3]: buffer.
Protocol: as §1, §2

Like-named read-outs stand apart in the source and are kept apart here. Where a SMILES comes first, the peptide text is derived from it. Where no end group is shown, it is not given here. Side-chain parts run from the residue outwards. [ ]: non-standard residue; d: D form. Ac6c = NC1(C(=O)O)CCCCC1; Ac3c = NC1(C(=O)O)CC1; Aib = CC(C)(N)C(=O)O; PEG40k = 40 kDa PEG; Sar = CNCC(=O)O

T1 sequence (P43220 24-463, species assumed): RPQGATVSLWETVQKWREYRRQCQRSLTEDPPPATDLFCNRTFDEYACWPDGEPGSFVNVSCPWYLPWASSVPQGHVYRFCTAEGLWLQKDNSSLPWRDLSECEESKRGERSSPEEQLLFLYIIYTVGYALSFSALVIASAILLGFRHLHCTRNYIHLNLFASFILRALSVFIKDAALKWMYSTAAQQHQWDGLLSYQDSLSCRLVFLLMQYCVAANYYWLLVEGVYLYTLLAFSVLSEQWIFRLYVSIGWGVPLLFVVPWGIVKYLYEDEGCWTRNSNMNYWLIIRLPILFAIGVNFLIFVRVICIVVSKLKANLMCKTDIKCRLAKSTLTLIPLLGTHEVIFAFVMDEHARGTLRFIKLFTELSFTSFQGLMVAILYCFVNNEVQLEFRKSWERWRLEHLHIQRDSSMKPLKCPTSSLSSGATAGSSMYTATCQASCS

On to “40 kPEG-Aib^−1-P^0,C^24GLP(7-36): Aib^−1-P^0,C^24GLP(7-36) pegylated by maleimido-functioned 40 k Da PEG on the SH group of 24-Cys ([Aib]PHAEGTFTSDVSSYLEGQAAKEFIC([maleimide-PEG40k])WLVKGR)”, for which the EC50%/STD ratio in data set [1] (prodrug incubated in PBS at 37° C. for 30 h) amounted to 17.31%; in data set [1] (prodrug incubated in PBS at 37° C. for 54 h), 27.74%; in data set [1] (prodrug incubated in PBS at 37° C. for 240 h), 66.49%; in data set [1] (prodrug incubated in PBS at 37° C. for […]) it was 55.90%.

For `C[C@@H](O)[C@H](NC(=O)CNC(=O)[C@H](CCCNC(=N)N)NC(=O)[C@H](CO)NC(=O)[C@H](Cc1c[nH]cn1)NC(=O)CN(C)C(=O)[C@@H](N)CCCCN)C(=O)N[C@@H](Cc1ccccc1)C(N)=O` [A peptide, lys-sar-HSRGTF-NH2] (H-K[Sar]HSRGTF-NH2; N-terminus assumed), the “Relative peak area(%), HPLC peak a” value in data set [2] (5 h) was determined as 26.5%; in data set [2] (8 h) it was 28.9%; in data set [2] (24 h) it was 28.8%; in data set [2] (31 h) it was 77.7%; in data set [2] (47 h), 90.0%. Further, the “Relative peak area(%), HPLC peak b” value was 73.5% in data set [2] (5 h); 71.1% in data set [2] (8 h); 71.2% in data set [2] (24 h); 22.3% in data set [2] (31 h); 10.0% in data set [2] (47 h).

Usually half-life stands for how long it takes for the measured level to halve. Lower therefore signals fast loss. In turn, `C[C@@H](O)[C@H](NC(=O)CNC(=O)[C@H](CCCNC(=N)N)NC(=O)[C@H](CO)NC(=O)[C@H](Cc1c[nH]cn1)NC(=O)[C@@H](N)Cc1ccc(NC(=O)[C@@H]2CCCN2C(=O)[C@@H](N)Cc2ccccc2)cc1)C(=O)N[C@@H](Cc1ccccc1)C(N)=O` [Compounds 1] gave a half-life in data set [2] of 58 h. In data set [2], `C[C@@H](O)[C@H](NC(=O)CNC(=O)[C@H](CCCNC(=N)N)NC(=O)[C@H](CO)NC(=O)[C@H](Cc1c[nH]cn1)NC(=O)[C@@H](N)Cc1ccc(NC(=O)[C@@H]2CCCN2C(=O)[C@H](N)Cc2ccccc2)cc1)C(=O)N[C@@H](Cc1ccccc1)C(N)=O` [Compounds 3] gave a half-life of 20 h.

In the case of `C[C@@H](O)[C@H](NC(=O)CNC(=O)[C@H](CCCNC(=N)N)NC(=O)[C@H](CO)NC(=O)[C@H](Cc1c[nH]cn1)NC(=O)[C@@H](N)Cc1ccc(NC(=O)[C@H]2CCCN2C(=O)[C@H](N)Cc2ccccc2)cc1)C(=O)N[C@@H](Cc1ccccc1)C(N)=O` [Compounds 4], in data set [2], the half-life was 39 h.

With `C[C@@H](O)[C@H](NC(=O)CNC(=O)[C@H](CCCNC(=N)N)NC(=O)[C@H](CO)NC(=O)[C@H](Cc1c[nH]cn1)NC(=O)[C@@H](N)Cc1ccc(NC(=O)[C@@H]2CCCN2C(=O)CN)cc1)C(=O)N[C@@H](Cc1ccccc1)C(N)=O` [Compounds 5], the half-life in data set [2] was 72 h. Turning to `C[C@@H](O)[C@H](NC(=O)CNC(=O)[C@H](CCCNC(=N)N)NC(=O)[C@H](CO)NC(=O)[C@H](Cc1c[nH]cn1)NC(=O)[C@@H](N)Cc1ccc(NC(=O)[C@@H]2CCCN2C(=O)CO)cc1)C(=O)N[C@@H](Cc1ccccc1)C(N)=O` [Compounds 6], in data set [2], the half-life was 603 h. Turning to `CC(C)C[C@H](N)C(=O)N1CCC[C@H]1C(=O)Nc1ccc(C[C@H](N)C(=O)N[C@@H](Cc2c[nH]cn2)C(=O)N[C@@H](CO)C(=O)N[C@@H](CCCNC(=N)N)C(=O)NCC(=O)N[C@H](C(=O)N[C@@H](Cc2ccccc2)C(N)=O)[C@@H](C)O)cc1` [Compounds 7], in data set [2], the half-life was 62 h.

In data set [3], `C[C@@H](O)[C@H](NC(=O)CNC(=O)[C@H](CCCNC(=N)N)NC(=O)[C@H](CO)NC(=O)[C@H](Cc1c[nH]cn1)NC(=O)[C@@H](N)Cc1ccc(NC(=O)[C@@H]2CCCN2C(=O)[C@@H](N)C(C)(C)C)cc1)C(=O)N[C@@H](Cc1ccccc1)C(N)=O` [Compounds 8] gave a half-life of 200 h.

Regarding `C[C@@H](O)[C@H](NC(=O)CNC(=O)[C@H](CCCNC(=N)N)NC(=O)[C@H](CO)NC(=O)[C@H](Cc1c[nH]cn1)NC(=O)[C@@H](N)Cc1ccc(NC(=O)[C@@H]2CCCN2C(=O)[C@@H](N)CO)cc1)C(=O)N[C@@H](Cc1ccccc1)C(N)=O` [Compounds 9], the half-life in data set [2] is 34 h.

Regarding `C[C@@H](O)[C@H](NC(=O)CNC(=O)[C@H](CCCNC(=N)N)NC(=O)[C@H](CO)NC(=O)[C@H](Cc1c[nH]cn1)NC(=O)[C@@H](N)Cc1ccc(NC(=O)[C@@H]2CCCN2C(=O)[C@@H]2CCCN2)cc1)C(=O)N[C@@H](Cc1ccccc1)C(N)=O` [Compounds 10], the half-life in data set [2] is 97 h. For `C[C@@H](O)[C@H](NC(=O)CNC(=O)[C@H](CCCNC(=N)N)NC(=O)[C@H](CO)NC(=O)[C@H](Cc1c[nH]cn1)NC(=O)[C@@H](N)Cc1ccc(NC(=O)[C@@H]2CCCN2C(=O)[C@@H](N)CCCCN)cc1)C(=O)N[C@@H](Cc1ccccc1)C(N)=O` [Compounds 11], the half-life in data set [2] is 33 h. Regarding `C[C@@H](O)[C@H](NC(=O)CNC(=O)[C@H](CCCNC(=N)N)NC(=O)[C@H](CO)NC(=O)[C@H](Cc1c[nH]cn1)NC(=O)[C@@H](N)Cc1ccc(NC(=O)[C@@H]2CCCN2C(=O)[C@H](N)CCCCN)cc1)C(=O)N[C@@H](Cc1ccccc1)C(N)=O` [Compounds 12], the half-life in data set [2] is 11 h. Compound `C[C@@H](O)[C@H](NC(=O)CNC(=O)[C@H](CCCNC(=N)N)NC(=O)[C@H](CO)NC(=O)[C@H](Cc1c[nH]cn1)NC(=O)[C@@H](N)Cc1ccc(NC(=O)[C@@H]2CCCN2C(=O)[C@@H](N)CCC(=O)O)cc1)C(=O)N[C@@H](Cc1ccccc1)C(N)=O` [Compounds 13] showed a half-life in data set [2] of 85 h. This half-life is about 7.7-fold higher than that of the compound before. `CNCC(=O)N1CCC[C@H]1C(=O)Nc1ccc(C[C@H](N)C(=O)N[C@@H](Cc2c[nH]cn2)C(=O)N[C@@H](CO)C(=O)N[C@@H](CCCNC(=N)N)C(=O)NCC(=O)N[C@H](C(=O)N[C@@H](Cc2ccccc2)C(N)=O)[C@@H](C)O)cc1` [Compounds 14] came in with a half-life in data set [2] of roughly 1000 h. As for `C[C@@H](O)[C@H](NC(=O)CNC(=O)[C@H](CCCNC(=N)N)NC(=O)[C@H](CO)NC(=O)[C@H](Cc1c[nH]cn1)NC(=O)[C@@H](N)Cc1ccc(NC(=O)[C@@H]2CCCN2C(=O)C(C)(C)N)cc1)C(=O)N[C@@H](Cc1ccccc1)C(N)=O` [Compounds 15], in data set [3], the half-life is 1.15 h. As to `C[C@@H](O)[C@H](NC(=O)CNC(=O)[C@H](CCCNC(=N)N)NC(=O)[C@H](CO)NC(=O)[C@H](Cc1c[nH]cn1)NC(=O)[C@@H](N)Cc1ccc(NC(=O)[C@@H]2CCCN2C(=O)C(C)(C)O)cc1)C(=O)N[C@@H](Cc1ccccc1)C(N)=O` [Compounds 16], in data set [3], the half-life is 33 h. For `C[C@@H](O)[C@H](NC(=O)CNC(=O)[C@H](CCCNC(=N)N)NC(=O)[C@H](CO)NC(=O)[C@H](Cc1c[nH]cn1)NC(=O)[C@@H](N)Cc1ccc(NC(=O)[C@@H]2CCCN2C(=O)C2(N)CCCCC2)cc1)C(=O)N[C@@H](Cc1ccccc1)C(N)=O` [Compounds 17], the half-life in data set [3] was found to be 0.1 h. This half-life lies about 330-fold lower than the previous one. In data set [2], `C[C@@H](O)[C@H](NC(=O)CNC(=O)[C@H](CCCNC(=N)N)NC(=O)[C@H](CO)NC(=O)[C@H](Cc1c[nH]cn1)NC(=O)[C@@H]1CCCN1C(=O)C1(N)CCCCC1)C(=O)N[C@@H](Cc1ccccc1)C(N)=O` [Peptide 17] (H-[Ac6c]PHSRGTF-NH2) had a half-life of 5 h. `C[C@@H](O)[C@H](NC(=O)CNC(=O)[C@H](CCCNC(=N)N)NC(=O)[C@H](CO)NC(=O)[C@H](Cc1c[nH]cn1)NC(=O)[C@@H]1CCCN1C(=O)C1(N)CC1)C(=O)N[C@@H](Cc1ccccc1)C(N)=O` [Peptide 18] (H-[Ac3c]PHSRGTF-NH2) had a half-life in data set [2] of 10 h. Against the preceding compound, the half-life is about 2-fold higher.
